Assay results reported in ChEMBL document CHEMBL5537115, “New broad-spectrum and potent antibacterial agents with dual-targeting mechanism: Promoting FtsZ polymerization and disrupting bacterial membranes” (Eur J Med Chem, 2024).
The source made the active and inactive calls. The calls are words filed in the database; no cut-off is given here.

How the values were obtained:
Staphylococcus aureus [1] = assay: Induction of resistance development in Staphylococcus aureus ATCC25923 assessed as fold increase in MIC at 0.5 times MIC measured after 32 days by multi-passage resistance assay relative to control; type: functional; details: time 32.0 day
Staphylococcus aureus [2] = assay: Antibacterial activity against Staphylococcus aureus clinical isolate incubated for 18 to 24 hrs; type: functional; details: time 18-24 hrs
Staphylococcus aureus [3] = assay: Induction of morphological change in Staphylococcus aureus ATCC25923 assessed as loss of bacterial membrane integrity at 16 times MIC incubated for 2 hrs by TEM analysis; type: functional, organism-based
[4] = system: Staphylococcus epidermidis; assay: Antibacterial activity against penicillin-resistant Staphylococcus epidermidis clinical isolate assessed as bacterial growth inhibition incubated for 20 hrs by CLSI based broth microdilution method; type: functional
Bacillus subtilis [5] = assay: Antibacterial activity against penicillin-susceptible Bacillus subtilis ATCC9372 assessed as bacterial growth inhibition incubated for 20 hrs by CLSI based broth microdilution method; type: functional
Escherichia coli [6] = assay: Antibacterial activity against penicillin-susceptible Escherichia coli ATCC25922 assessed as bacterial growth inhibition incubated for 20 hrs by CLSI based broth microdilution method; type: functional
Enterococcus faecalis [7] = assay: Antibacterial activity against vancomycin-susceptible Enterococcus faecalis ATCC29212 assessed as bacterial growth inhibition incubated for 20 hrs by CLSI based broth microdilution method; type: functional
[8] = target: T1, Cell division protein FtsZ (Bacillus subtilis) (UniProt A5Z1V5); assay: Induction of FtsZ polymerization in Bacillus subtilis assessed as bundling of FtsZ protofilaments at 10 ug/ml preincubated for 15 mins followed by GTP addition measured after 10 mins by TEM analysis; details: dose 10.0 µg/ml, time 25.0 min
T1 sequence (whole entry): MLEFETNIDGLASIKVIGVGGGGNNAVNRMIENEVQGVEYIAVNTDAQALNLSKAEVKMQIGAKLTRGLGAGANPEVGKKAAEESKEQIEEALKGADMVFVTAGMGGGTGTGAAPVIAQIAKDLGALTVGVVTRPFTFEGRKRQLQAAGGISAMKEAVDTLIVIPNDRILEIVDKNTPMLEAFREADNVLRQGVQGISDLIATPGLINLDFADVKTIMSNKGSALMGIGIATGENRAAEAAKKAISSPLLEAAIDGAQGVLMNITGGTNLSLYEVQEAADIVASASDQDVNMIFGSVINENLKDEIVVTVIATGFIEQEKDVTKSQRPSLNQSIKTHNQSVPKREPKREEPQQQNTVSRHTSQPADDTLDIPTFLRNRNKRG

Acinetobacter baumannii [9] = assay: Antibacterial activity against Acinetobacter baumannii ATCC19606 assessed as bacterial growth inhibition incubated for 20 hrs by CLSI based broth microdilution method; type: functional
Bacillus subtilis [10] = assay: Antibacterial activity against penicillin-susceptible Bacillus subtilis ATCC9372 incubated for 18 to 24 hrs; type: functional; details: time 18-24 hrs
Staphylococcus aureus [11] = assay: Antibacterial activity against erythromycin-susceptible Staphylococcus aureus ATCC25923 assessed as bacterial growth inhibition incubated for 20 hrs by CLSI based broth microdilution method; type: functional
Staphylococcus aureus [12] = assay: Disruption of inner membrane in Staphylococcus aureus ATCC25923 by PI staining based analysis; type: functional, organism-based; details: time 12.0 min, TDE = time-dependent effect
Staphylococcus aureus [13] = assay: Inhibition of biofilm formation of Staphylococcus aureus ATCC25923 at 0.5 ug/ml incubated for 20 hrs by crystal violet staining based analysis relative to control; type: functional
Staphylococcus aureus [14] = assay: Selectivity ratio of MBC for erythromycin-susceptible Staphylococcus aureus ATCC25923 to MIC for erythromycin-susceptible Staphylococcus aureus ATCC25923; type: functional
Staphylococcus aureus [15] = assay: Antibacterial activity against methicillin-resistant Staphylococcus aureus ATCC43300 assessed as bacterial growth inhibition incubated for 20 hrs by CLSI based broth microdilution method; type: functional
[16] = target: T1, Cell division protein FtsZ (Bacillus subtilis); assay: Induction of FtsZ polymerization in Bacillus subtilis preincubated for 10 mins followed by GTP addition measured upto 30 mins by absorbance based assay; details: dose 2.5-10 µg/ml, time 40.0 min
Acinetobacter baumannii [17] = assay: Selectivity ratio of MBC for Acinetobacter baumannii ATCC19606 to MIC for Acinetobacter baumannii ATCC19606; type: functional
Staphylococcus aureus [18] = assay: Antibacterial activity against penicillin-resistant Staphylococcus aureus ATCC31007 assessed as bacterial growth inhibition incubated for 20 hrs by CLSI based broth microdilution method; type: functional
Streptococcus pyogenes [19] = assay: Antibacterial activity against erythromycin-resistant Streptococcus pyogenes 2 clinical isolate assessed as bacterial growth inhibition incubated for 20 hrs by CLSI based broth microdilution method; type: functional
Staphylococcus aureus [20] = assay: Selectivity ratio of MBC for Staphylococcus aureus clinical isolate to MIC for Staphylococcus aureus clinical isolate; type: functional
Bacillus pumilus = assay: Antibacterial activity against penicillin-susceptible Bacillus pumilus CMCC63202 assessed as bacterial growth inhibition incubated for 20 hrs by CLSI based broth microdilution method; type: functional
[21] = Hemolytic activity in mouse erythrocytes at 128 ug/ml incubated for 1 hr by absorbance based assay; type: toxicity, cell-based, Erythrocyte; details: dose 128 µg/ml, read-out: Activity
Acinetobacter baumannii [22] = assay: Antibacterial activity against Acinetobacter baumannii ATCC19606 incubated for 18 to 24 hrs; type: functional; details: time 18-24 hrs
Bacillus subtilis [23] = assay: Induction of morphological change in Bacillus subtilis ATCC9372 assessed as increase in cell length at 0.5 times MIC by phase contrast microscopy; type: functional, organism-based
[24] = target: T1, Cell division protein FtsZ (Bacillus subtilis); assay: Induction of FtsZ polymerization in Bacillus subtilis at 2.5 to 10 ug/ml preincubated with compound followed by GTP addition by absorbance based assay; details: dose 2.5-10 µg/ml, time 40.0 min, TDE = time-dependent effect
Enterococcus faecium [25] = assay: Antibacterial activity against vancomycin-resistant Enterococcus faecium ATCC51559 assessed as bacterial growth inhibition incubated for 20 hrs by CLSI based broth microdilution method; type: functional
Escherichia coli [26] = assay: Antibacterial activity against wild-type Escherichia coli BW25113 assessed as bacterial growth inhibition incubated for 20 hrs by CLSI based broth microdilution method; type: functional
Staphylococcus aureus [27] = assay: Inhibition of biofilm formation of Staphylococcus aureus ATCC25923 incubated for 20 hrs by crystal violet staining based analysis; type: functional, organism-based
Enterococcus faecalis [28] = assay: Antibacterial activity against vancomycin-resistant Enterococcus faecalis ATCC51299 assessed as bacterial growth inhibition incubated for 20 hrs by CLSI based broth microdilution method; type: functional
Staphylococcus aureus [29] = assay: Selectivity ratio of MBC for methicillin-resistant Staphylococcus aureus ATCC43300 to MIC for methicillin-resistant Staphylococcus aureus ATCC43300; type: functional
Staphylococcus aureus [30] = assay: Induction of membrane potential depolarization in Staphylococcus aureus ATCC25923 measured after 20 mins by diSC35 dye based spectroscopy; type: functional, organism-based
Streptococcus pyogenes [31] = assay: Antibacterial activity against erythromycin-susceptible Streptococcus pyogenes 1 assessed as bacterial growth inhibition incubated for 20 hrs by CLSI based broth microdilution method; type: functional
Staphylococcus aureus [32] = assay: Antibacterial activity against Staphylococcus aureus clinical isolate assessed as bacterial growth inhibition incubated for 20 hrs by CLSI based broth microdilution method; type: functional
Staphylococcus aureus [33] = assay: Antibacterial activity against erythromycin-susceptible Staphylococcus aureus ATCC25923 incubated for 18 to 24 hrs; type: functional; details: time 18-24 hrs
Staphylococcus aureus [34] = assay: Antibacterial activity against methicillin-resistant Staphylococcus aureus ATCC43300 incubated for 18 to 20 hrs; type: functional; details: time 18-20 hrs
Staphylococcus aureus [35] = assay: Disruption of inner membrane in Staphylococcus aureus ATCC25923 measured after 12 mins by PI staining based analysis; type: functional, organism-based
Staphylococcus aureus [36] = assay: Induction of morphological change in Staphylococcus aureus ATCC25923 assessed as leakage of cell contents at 16 times MIC incubated for 2 hrs by TEM analysis; type: functional, organism-based
Bacillus subtilis [37] = assay: Selectivity ratio of MBC for penicillin-susceptible Bacillus subtilis ATCC9372 to MIC for penicillin-susceptible Bacillus subtilis ATCC9372; type: functional
Klebsiella pneumoniae = assay: Antibacterial activity against Klebsiella pneumoniae ATCC BAA-1902 assessed as bacterial growth inhibition incubated for 20 hrs by CLSI based broth microdilution method; type: functional
Enterococcus faecium [38] = assay: Antibacterial activity against vancomycin-susceptible Enterococcus faecium ATCC19434 assessed as bacterial growth inhibition incubated for 20 hrs by CLSI based broth microdilution method; type: functional

With `Cc1ccccc1-c1c[n+](C)c(-c2ccc(C(C)(C)C)cc2)cc1/C=C/c1ccc(O)cc1.[I-]` the fold change (FC) (Staphylococcus aureus [1]) was 2, the MBC (Staphylococcus aureus [2]) was 4 µg/mL and the Activity (Staphylococcus aureus [3]) was “Active”. It also gave an MIC [4] of 2 µg/mL, an MIC (Bacillus subtilis [5]) of 0.5 µg/mL and an MIC (Escherichia coli [6]) of 32 µg/mL. For the same compound, the MIC (Enterococcus faecalis [7]) was 2 µg/mL, the Activity [8] was “Active” and the MIC (Acinetobacter baumannii [9]) was 4 µg/mL. For the same compound, the MBC (Bacillus subtilis [10]) was 2 µg/mL, the MIC (Staphylococcus aureus [11]) was 0.062 µg/mL and the Activity (Staphylococcus aureus [12]) was “Tde”. The inhibition at 0.5 µg/mL (Staphylococcus aureus [13]) was 39%, the Ratio (Staphylococcus aureus [14]) was 32 and the MIC (Staphylococcus aureus [15]) was 0.125 µg/mL. The Activity [16] was “Dose-Dependent Effect”, the Ratio (Acinetobacter baumannii [17]) was 4 and the MIC (Staphylococcus aureus [18]) was 1 µg/mL. The MIC (Streptococcus pyogenes [19]) was 2 µg/mL, the Ratio (Staphylococcus aureus [20]) was 8 and the MIC (Bacillus pumilus) was 1 µg/mL. The hemolysis at 1 h, 128 ug/ml [21] was 7.59%, the MBC (Acinetobacter baumannii [22]) was 16 µg/mL and the Activity (Bacillus subtilis [23]) was “Active”. For the same compound, the Activity [24] was “Tde”, the MIC (Enterococcus faecium [25]) was 2 µg/mL and the MIC (Escherichia coli [26]) was over 64 µg/mL. For the same compound, the inhibition (Staphylococcus aureus [27]) was “Dose-Dependent Effect”, the MIC (Enterococcus faecalis [28]) was 2 µg/mL and the Ratio (Staphylococcus aureus [29]) was 16. For the same compound, the Activity (Staphylococcus aureus [30]) was “Dose-Dependent Effect”, the MIC (Streptococcus pyogenes [31]) was 1 µg/mL and the MIC (Staphylococcus aureus [32]) was 0.125 µg/mL. For the same compound, the MBC (Staphylococcus aureus [33]) was 2 µg/mL, the MBC (Staphylococcus aureus [34]) was 2 µg/mL and the Activity (Staphylococcus aureus [35]) was “Dose-Dependent Effect”. For the same compound, the Activity (Staphylococcus aureus [36]) was “Active”, the Ratio (Bacillus subtilis [37]) was 4 and the MIC (Klebsiella pneumoniae) was over 64 µg/mL. It also gave an MIC (Enterococcus faecium [38]) of 2 µg/mL.
